In patent US6774128B2, “Methods for prevention and treatment of gastrointestinal disorders” (Johns Hopkins University, priority 2000, dated 2004):
“Also recorded” adds a separate entry of the source. Where two headings read alike, the source gives them in different places.

Tests used:
[1] = system: STZ-diabetic and NOD-diabetic mice; experiment: Gastric emptying of phenol red-labeled liquid meal in diabetic mice; format: in vivo, mouse; settings: for gastric emptying (20% dextrose): NOD-diabetic and STZ-diabetic mice after 1 week of insulin treatment; for t½ for gastric emptying: 1 mg/kg intraperitoneal 20 minutes before
Description: Animals. Mice were allowed free access to food and water except when fasted, as indicated for experiments. Wild-type mice (C57BL/6) were purchased from The Jackson Laboratory (Bar Harbor, Me., USA). nNOS^−/− mice were obtained following targeted genomic deletion of nNOS (15) and have the genetic background of C57BL/6 mice (28). For STZ-induced diabetes, adult male mice (C57BL/6) were injected intraperitoneally with a single dose of STZ (200 mg/kg in 0.1 M sodium citrate) as described elsewhere (29), whereas control mice were injected with an equal volume of vehicle (sodium citrate). STZ-treated mice were used for experiments 8 weeks after STZ injection. […]; Boehringer Mannheim, Indianapolis, Ind., USA). The average serum glucose levels for wild-type animals and the STZ diabetic mice 8 weeks after injection were 99 mg/dL and 388 mg/dL, respectively (Table 1). Adult male nonobese diabetic (NOD/LtJ [NOD]) mice were obtained at 8-10 weeks of age (The Jackson Laboratory). Serum glucose levels were also monitored weekly with the Accu-Check monitor. NOD-prediabetic mice and NOD-diabetic mice had average serum glucose levels of 88 mg/dL and 232 mg/dL, respectively (Table 1). For the indicated experiments, NOD-prediabetic mice were sacrificed at 10 weeks of age after serum glucose levels were confirmed, whereas NOD-diabetic mice were sacrificed at 30-32 weeks of age after elevated serum glucose levels were confirmed.
(§1) Insulin treatment was given using LinBit, a sustained-release insulin implant (0.1 U/d/implant; LinShin Canada Inc., Toronto, Ontario, Canada). After brief anesthesia with diethyl echer, the insulin implant was quickly immersed in Betadine solution (McKesson, San Francisco, Calif., USA) and implanted subcutaneously with a 12-gauge needle. Serum glucose levels were monitored, and insulin-treated animals were used for experiments after 12 hours or 1 week of insulin therapy, as indicated. The serum glucose levels after 1 week of insulin treatment are shown (Table 1), as are the serum glucose levels after 12 hours of insulin treatment (see FIG. 2b).
As indicated, insulin-treated diabetic mice were treated with the nNOS inhibitor 7-nitroindazole (7-NI; Lancaster, Wyndham, N.H., USA) by two intraperitoneal injections (50 mg/kg) of a suspension in sesame oil (Sigma Chemical Co., St. Louis, Miss., USA) given 24 hours and 30 minutes before determination of gastric emptying. […] For all experiments, control animals were similarly injected with vehicle (either sesame oil or water).
Gastric emptying. Gastric emptying of liquids was determined as described previously (30). For any experiments using diabetic mice, serum glucose levels of all animals were confirmed immediately before monitoring gastric emptying. Adult mice were sedated briefly (<30 seconds) with diethyl ether. Mice fully recovered from sedation in less than 1 minute. During brief sedation, oral-gastric intubation was accomplished with a 21-gauge needle fitted with a thin plastic catheter (8 cm in length). Then, 0.2 mL of 1 mg/mL phenol red-labeled 20% dextrose (or other solution, if indicated) was instilled into the stomach. Mice were placed in clean, empty cages until the time of sacrifice. At the indicated time (0-120 minutes), mice were rapidly sacrificed by cervical dislocation and the stomach was excised. The duodenum was ligated, followed by transverse resection of the lower esophagus, and the stomach was removed from the body cavity. Excised stomachs were homogenized with a polytron (Brinkmann, Westbury, N.Y., USA) homogenizer in 3 mL of 95% ethyl alcohol. After centrifugation (40,000 g for 20 minutes), an aliquot of the supernatant was used to determine phenol red content. Standard curve was constructed and found to be linear over the range of 1-20 microgram of phenol red. Phenol red content was monitored at 410 nm, at which a single peak of absorbance was observed when extracted with ethanol. […]

nNOS [2] = experiment: Immunohistochemistry of nNOS protein expression in pyloric myenteric neurons; format: in vivo, mouse; settings: NOD-diabetic and STZ-diabetic mice, insulin treatment (1 week)
Description: as §1
Immunohistochemistry. For nondiabetic studies, wild-type animals or 10-week-old NOD-prediabetic animals were used. For diabetic studies, we used animals 8 weeks after STZ injection (STZ diabetic) or 30-week-old NOD mice (NOD-diabetic). Pylori or other tissues were dissected and immediately imbedded (Tissue-Tek OCT 4583; Sakura Finetek Inc., Torrence, Calif., USA) and placed in dry ice and allowed to freeze. Routine sections (10 micrometer) were cut using a cryostat (−19° C.; Leica Microm, Allendale, N.J., USA). For immunostaining, slides were fixed for 5 minutes in 4.0% paraformaldehyde, washed in PBS, and permeablized with 0.1% Triton X-100 in PBS. […]

nNOS mRNA = experiment: In situ hybridization of nNOS mRNA in pyloric myenteric neurons; format: in vivo, mouse; settings: NOD-diabetic and STZ-diabetic mice, insulin treatment (1 week)
Description: as §1
In situ hybridization. In situ hybridization for nNOS was performed as described previously (31,32).

nNOS [3] = experiment: Western blot analysis of nNOS protein expression in intestinal tissues; format: in vivo, mouse; settings: NOD-diabetic mice, insulin treatment (1 week)
Description: as §1
Western blot analysis. Mouse tissues were homogenized in ice-cold buffer containing 50 mM Tris (pH 7.4, 25° C.), 100 mM NaCl, 1 mM EGTA, and protease inhibitors (4 microgram/mL leupeptin, 2 microgram/mL antipain, 2 microgram/mL pepstatin, and 1 mM PMSF). After centrifugatin (1.5 minutes, 16,000 g), the supernatants were collected and protein content was determined (Coomassie protein assay; Pierce Chemical Co., Rockville, Ill., USA). Samples (50 microgram protein) were subjected to SDS-PAGE (4-12% gradient gel; Bis-tris NuPage; Novex, San Diego, Calif., USA) and then transferred to PVDF membranes (Immobilon-P; Millipore Corp., Bedford, Mass., USA). […]

pyloric sphincter muscle = experiment: Organ bath physiology: EFS-evoked NO-dependent NANC relaxation of ex vivo pylori; set-up: species or system mouse
[4] = wild-type pylori precontracted with 0.1 micromolar SP, inhibitor 0.1 mM

insulin
gastric emptying (20% dextrose) [1]: restored to normal | gastric emptying (20% dextrose) ([1]; listed as Insulin): reverses delayed gastric emptying | t½ of gastric emptying ([1]; STZ-diabetic mice after insulin treatment for 12 hours (subcutaneous implant), sham STZ-diabetic 60, wild-type 36): 54 min | nNOS protein expression in pyloric myenteric neurons (nNOS [2]): reverse the loss of nNOS expression; also recorded: near normal levels | nNOS mRNA expression in pylori (nNOS mRNA): substantially restores | nNOS protein expression (Western blot) in intestinal regions (nNOS [3]): fully reversible | nNOS protein expression (Western blot) in intestinal regions (nNOS [3]; listed as Insulin): completely reverses the loss of nNOS protein | EFS-evoked NANC relaxation (pyloric sphincter muscle; pylori of NOD-diabetic mice after insulin treatment (1 week)): partially restores NANC relaxation | EFS-evoked NANC relaxation (pyloric sphincter muscle; pylori of STZ-diabetic mice after insulin treatment (1 week)): restores NANC relaxation

O=[N+]([O-])c1cccc2cn[nH]c12 [Compound 7-NI, 7-nitroindazole]
gastric emptying at 30 minutes ([1]; insulin-treated (1 week) STZ-diabetic and NOD-diabetic mice, 7-NI 50 mg/kg intraperitoneal, 24 hours and 30 minutes before): reverses the restoration of normal gastric emptying; also recorded: delays gastric emptying | NANC relaxation (pyloric sphincter muscle; pylori of insulin-treated diabetic mice, in the presence of 0.1 mM 7-NI): completely blocked | EFS-evoked NANC relaxation (pyloric sphincter muscle; [4]): blocked

NC(=NCCC[C@H](N)C(=O)O)N[N+](=O)[O-] [L-NNA, N-nitro-[.-arginine]
EFS-evoked NANC relaxation (pyloric sphincter muscle; [4]): blocked

CCCc1nn(C)c2c(=O)[nH]c(-c3cc(S(=O)(=O)N4CCN(C)CC4)ccc3OCC)nc12 [sildenafil, 5-[2-ethoxy-5-(4-methylpiperazin-1-ylsulphonyl)phenyl]-1-methyl-3-n-propyl-1,6-dihydro-7H-pyrazolo[4,3d]pyrimidin-7-one]
effect on delayed gastric emptying ([1]; STZ-diabetic and NOD-diabetic mice, sildenafil 1 mg/kg): reverses the delayed gastric emptying; also recorded: reveres delayed gastric emptying | t½ for gastric emptying ([1]; sildenafil-treated NOD-diabetic mice): 36 min | t½ for gastric emptying ([1]; sildenafil-treated STZ-diabetic mice): 30 min

retrodotoxin [TTX]
EFS-evoked NANC relaxation (pyloric sphincter muscle): completely blocked
